What all share (assay type): cell-based
Series [1] concerns Ramos, NHL. Nature of the series: In vitro assays - TubOEt analogues, CellTiter-Glo growth inhibition. The following applies: Homo sapiens, Table 3, lantern-made analogues >85% purity, 96 hour exposure. As for the experimental part:
(§1) In vitro assays. Cells cultured in log-phase growth were seeded for 24 h in 96-well plates containing 150 μL RPMI 1640 supplemented with 20% FBS. Serial dilutions of antibody-drug conjugates in cell culture media were prepared at 4× working concentrations; 50 μL of each dilution was added to the 96-well plates. Following addition of ADC, cells were incubated with test articles for 4 d at 37° C. After 96 h, growth inhibition was assessed by CellTiter-Glo® (Promega, Madison, WI) and luminescence was measured on a plate reader. The IC50 value, determined in triplicate, is defined here as the concentration that results in a 50% reduction in cell growth relative to untreated controls.
(§2) A series of analogues of the ethyl ether tubulysin compound TubOEt (41) were synthesized on solid phase lanterns that maintain the ethyl ether substitution, while either varying the residue at the Ile position (203-215) or the Mep position (216-221). Following cleavage from the solid phase, the analogues were obtained in >85% purity and tested without further purification. The compounds were tested in vitro for potency relative to a sample of TubOEt synthesized in parallel on a lantern (41-lantern), following a 96 hour exposure, with IC5O values expressed in nM (Table 3). While in many cases an attenuation in activity was observed relative to 41-lantern, some well-tolerated substitutions were found. […] While this stereochemical preference is not observed when Ile is replaced with O-methyl threonine (207) or O-methyl allothreonine (206), bulkier substituents led to a greater differentiation. […] Replacement of the Mep residue was generally less-well tolerated.

The test system of series [2] is U266 MM. The description is as above. The conditions noted are these: Homo sapiens, U-266; Table 3; lantern-made analogues >85% purity, 96 hour exposure. As for the experimental part:
as §1, §2

For series [3], the system named is HepG2, HCC. The series is described as above. The following applies: Homo sapiens, Table 3, lantern-made analogues >85% purity, 96 hour exposure. As for the experimental part:
as §1, §2

Series [4] relates to HepG2, L540cy, Ramos, U266, HL60, HL60/RV cell lines. Nature of the series: In vitro assays - TubOEt analogues, statements across the cell line panel. The conditions noted are these: Table 3 cell lines, 96 hour exposure. As for the experimental part:
as §1, §2

Series [5] has as its system L540cy, HL. Put plainly: In vitro assays - tubulysin free drugs, CellTiter-Glo growth inhibition. The conditions noted are these: L540cy, 96 h, 96 hour exposure. As for the experimental part: as §1
(§3) In vitro assays—tubulysin free drugs. Cells were treated for 96 hours with tubulysin ether analogs (40-42) or tubulysin M (7), then assessed for viability as described in the methods.
(§4) The tubulysin ester analogs (133-137) and unsaturated ether analogs (176-179) were tested in vitro for potency relative to tubulysin M (7), following a 96 hour exposure. As shown by IC50 values (nM) of Table 2, Tubulysin esters 133-136 performed comparably to tubulysin M, with similar potencies across of the cell lines.
as §2
(In general: Cellular ATP, detected with luciferase, serves as a proxy for viable cell number.)

The subject of series [6] is HL60, AML. The description is as above. The conditions noted are these: Homo sapiens, HL-60, 96 h, 96 hour exposure. As for the experimental part:
as §1, §3, §4, §2

For series [7], the system named is HL60/RV, MDR + AML. The series is described as above. The conditions noted are these: Homo sapiens, HL-60, 96 h, 96 hour exposure. As for the experimental part: as §1, §3, §4, §2
Series [8] concerns L428, MDR + HL. Described as above. The following applies: Homo sapiens, L-428, 96 h, Table 2; free drug, 96 hour exposure. As for the experimental part: as §1, §3, §4
Series [9] deals with Karpas299, ALCL. Described as above. The conditions noted are these: Homo sapiens, KARPAS-299, 96 h, Table 2; free drug, 96 hour exposure. As for the experimental part: as §1, §3, §4
The subject of series [10] is Karpas299, L540cy, L428, HL60, HL60/RV cell lines. Nature of the series: In vitro assays - tubulysin free drugs, statements across the cell line panel. The following applies: Table 2 cell lines, 96 hour exposure. As for the experimental part: as §1, §3
The ethyl ether and tubulysin M maintained the highest level of potency in the context of MDR+L428 and HL60/RV cell lines.
as §4

Setting [11] is: Table 3, lantern-made analogues >85% purity.

As for `CCO[C@H](C[C@H](C(C)C)N(C)C(=O)[C@@H](NC(=O)C1CCC(F)(F)CN1C)[C@@H](C)CC)c1nc(C(=O)N[C@@H](Cc2ccccc2)C[C@H](C)C(=O)O)cs1` (stereo partly drawn) [Compound 216, (2S,4R)-4-(2-((1R,3R)-3-((2S,3S)-2-(5,5-difluoro-1-methylpiperidine-2-carboxamido)-N,3-dimethylpentanamido)-1-ethoxy-4-methylpentyl)thiazole-4-carboxamido)-2-methyl-5-phenylpentanoic acid], the IC50 was 10 nM in series [1]; 9 nM in series [2]; 58 nM in [3]; 12 nM in series [5] (setting [11]); 61 nM in [6] (setting [11]); > 1000 nM in [7] (setting [11]). Also, the “potency / cytotoxicity of TubOEt analogues, in words” value in series [4] is “decrease in the observed cytotoxicity”.

Take `CC[C@H](C)[C@H](NC(=O)[C@H]1CCCCN1C)C(=O)N(C)[C@H](C[C@@H](OC(=O)CC(C)(C)C)c1nc(C(=O)N[C@@H](Cc2ccccc2)C[C@H](C)C(=O)O)cs1)C(C)C` [Compound 137, (2S,4R)-4-(2-((1R,3R)-3-((2S,3S)—N,3-dimethyl-2-((R)-1-methylpiperidine-2-carboxamido)pentanamido)-1-((3,3-dimethylbutanoyl)oxy)-4-methylpentyl)thiazole-4-carboxamido)-2-methyl-5-phenylpentanoic acid]: the IC50 in [8] stood at 0.93 nM; in [9], 0.18 nM; in series [5] (Table 2, free drug) it was 0.7 nM; in series [6] (Table 2, free drug), 0.7 nM; in series [7] (Table 2, free drug), 47 nM. Besides, the “potency relative to tubulysin M (7), in words” value in [10] is given as “reduced potency”.

For `C=CCO[C@H](C[C@H](C(C)C)N(C)C(=O)[C@@H](NC(=O)[C@H]1CCCCN1C)[C@@H](C)CC)c1nc(C(=O)N[C@@H](Cc2ccccc2)C[C@H](C)C(=O)O)cs1` [Compound 177, (2S,4R)-4-(2-((1R,3R)-1-(allyloxy)-3-((2S,3S)—N,3-dimethyl-2-((R)-1-methylpiperidine-2-carboxamido)pentanamido)-4-methylpentyl)thiazole-4-carboxamido)-2-methyl-5-phenylpentanoic acid], the IC50 stood at 0.15 nM in [8]; 0.02 nM in series [9]; 0.12 nM in [5] (Table 2, free drug); 0.1 nM in [6] (Table 2, free drug); 9 nM in series [7] (Table 2, free drug). For the same molecule, in series [10], the “potency relative to tubulysin M (7), in words” value was “comparable potency”.

For `CCO[C@H](C[C@H](C(C)C)N(C)C(=O)[C@@H](NC(=O)[C@H]1CCCCN1C)C1CCOCC1)c1nc(C(=O)N[C@@H](Cc2ccccc2)C[C@H](C)C(=O)O)cs1` [Compound 210, (2S,4R)-4-(2-((1R,3R)-1-ethoxy-4-methyl-3-((S)—N-methyl-2-((R)-1-methylpiperidine-2-carboxamido)-2-(tetrahydro-2H-pyran-4-yl)acetamido)pentyl)thiazole-4-carboxamido)-2-methyl-5-phenylpentanoic acid], the IC50 in series [1], in series [2], in [3], in series [5] (setting [11]), in series [6] (setting [11]) and in series [7] (setting [11]) was > 1000 nM in each case. The “potency / cytotoxicity of TubOEt analogues, in words” value in [4] is “inactive against all cell lines tested”.

With `CCO[C@H](C[C@H](C(C)C)N(C)C(=O)[C@@H](NC(=O)[C@H]1[C@@H]2CC[C@@H](C2)N1C)[C@@H](C)CC)c1nc(C(=O)N[C@@H](Cc2ccccc2)C[C@H](C)C(=O)O)cs1` [Compound 219, (2S,4R)-4-(2-((1R,3R)-3-((2S,3S)—N,3-dimethyl-2-((1S,3R,4R)-2-methyl-2-azabicyclo[2.2.1]heptane-3-carboxamido)pentanamido)-1-ethoxy-4-methylpentyl)-thiazole-4-carboxamido)-2-methyl-5-phenylpentanoic acid], the 50% inhibitory concentration (IC50) is 8 nM in series [1]; 8 nM in series [2]; 19 nM in [3]; 6 nM in [5] (setting [11]); 25 nM in series [6] (setting [11]); > 1000 nM in series [7] (setting [11]). In addition, in series [4], the “potency / cytotoxicity of TubOEt analogues, in words” value is reported as “decrease in the observed cytotoxicity”.

For `CCO[C@H](C[C@H](C(C)C)N(C)C(=O)[C@@H](NC(=O)[C@@]1(C)CCCN1C)[C@@H](C)CC)c1nc(C(=O)N[C@@H](Cc2ccccc2)C[C@H](C)C(=O)O)cs1` [Compound 221, (2S,4R)-4-(2-((1R,3R)-3-((2S,3S)-2-((R)-1,2-dimethylpyrrolidine-2-carboxamido)-N,3-dimethylpentanamido)-1-ethoxy-4-methylpentyl)thiazole-4-carboxamido)-2-methyl-5-phenylpentanoic acid], the IC50 came to 1 nM in series [1]; 2 nM in [2]; 4 nM in series [3]; 1 nM in series [5] (setting [11]); 12 nM in series [6] (setting [11]); 522 nM in [7] (setting [11]). Further, in series [4], the “potency / cytotoxicity of TubOEt analogues, in words” value is reported as “most potent compounds obtained in this series”.

Turning to `CCO[C@H](C[C@H](C(C)C)N(C)C(=O)[C@@H](NC(=O)[C@H]1[C@H]2CC[C@H](CC2)N1C)[C@@H](C)CC)c1nc(C(=O)N[C@@H](Cc2ccccc2)C[C@H](C)C(=O)O)cs1` [Compound 218], the IC50 in [1] is 6 nM; in series [2], 7 nM; in [3], 9 nM; in [5] (setting [11]) it was 5 nM; in [6] (setting [11]) it was 24 nM; in series [7] (setting [11]), > 1000 nM. Also, the “potency / cytotoxicity of TubOEt analogues, in words” value in series [4] is “decrease in the observed cytotoxicity”.

Consider `CCO[C@H](C[C@H](C(C)C)N(C)C(=O)[C@@H](NC(=O)[C@H]1CCCCN1C)C1CCCCC1)c1nc(C(=O)N[C@@H](Cc2ccccc2)C[C@H](C)C(=O)O)cs1` [Compound 205, (2S,4R)-4-(2-((1R,3R)-3-((S)-2-cyclohexyl-N-methyl-2-((R)-1-methylpiperidine-2-carboxamido)acetamido)-1-ethoxy-4-methylpentyl)thiazole-4-carboxamido)-2-methyl-5-phenylpentanoic acid], for which the IC50 came out at 0.5 nM in [1]; 0.5 nM in [2]; 7 nM in [3]; 1 nM in series [5] (setting [11]); 2 nM in series [6] (setting [11]); 177 nM in [7] (setting [11]). In addition, the “potency / cytotoxicity of TubOEt analogues, in words” value in [4] is reported as “potent”.

Regarding `CCO[C@H](C[C@H](C(C)C)N(C)C(=O)[C@@H](NC(=O)[C@H]1CCCCN1C)C1CCCC1)c1nc(C(=O)N[C@@H](Cc2ccccc2)C[C@H](C)C(=O)O)cs1` [Compound 204, (2S,4R)-4-(2-((1R,3R)-3-((S)-2-cyclopentyl-N-methyl-2-((R)-1-methylpiperidine-2-carboxamido)acetamido)-1-ethoxy-4-methylpentyl)thiazole-4-carboxamido)-2-methyl-5-phenylpentanoic acid], the half-maximal inhibitory concentration (IC50) in series [1] came to 0.2 nM; in series [2], 0.1 nM; in series [3] it was 2 nM; in series [5] (setting [11]), 0.4 nM; in series [6] (setting [11]), 1 nM; in series [7] (setting [11]) it was 40 nM. In series [4], the “potency / cytotoxicity of TubOEt analogues, in words” value is recorded as “potent”.

As a reminder, the IC50 is the concentration that gives 50% inhibition.
